Experimental findings from US10934298B2, “Substituted pyrazolo[1,5-a]pyrimidines for the treatment of medical disorders” (BIAL—BioTech Investments, Inc., priority 2016, dated 2021) are described below.

The nature of series [1]: Compound solubility in water. The format is physicochemical.
The target of series [2] is T1, glucocerebrosidase (Gcase) (Homo sapiens, UniProt P04062).
T1 construct: micellar solution containing 10 nM GCase and 100 nM saposin C
T1 sequence (P04062 40-536): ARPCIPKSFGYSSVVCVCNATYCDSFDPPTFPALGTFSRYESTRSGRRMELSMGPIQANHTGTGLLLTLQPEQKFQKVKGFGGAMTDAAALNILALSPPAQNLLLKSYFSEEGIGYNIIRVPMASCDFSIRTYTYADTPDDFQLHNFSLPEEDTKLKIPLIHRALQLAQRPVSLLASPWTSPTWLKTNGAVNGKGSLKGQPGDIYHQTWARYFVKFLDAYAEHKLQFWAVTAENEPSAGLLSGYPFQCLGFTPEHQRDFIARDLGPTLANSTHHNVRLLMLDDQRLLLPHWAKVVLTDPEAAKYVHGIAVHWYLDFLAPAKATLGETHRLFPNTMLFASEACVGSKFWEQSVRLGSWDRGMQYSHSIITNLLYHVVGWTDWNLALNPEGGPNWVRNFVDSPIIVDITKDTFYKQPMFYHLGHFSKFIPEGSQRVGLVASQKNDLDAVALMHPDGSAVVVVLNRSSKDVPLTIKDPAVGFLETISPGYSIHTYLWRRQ
The series can be described thus: Glucocerebrosidase (Gcase) activation assay with 4-methylumbelliferyl-beta-D-glucopyranoside substrate, saposin C and phosphatidylserine/triton micelles, fluorescence readout. The format is biochemical. Particulars: for Percent Gease Activation, 0.1 μM Test Compound / Percent Gease Activation, 1 μM Test Compound: Table 4. In short, it runs like this:
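Fluorescence (ex 365 nm, em 440 nm) read after glycine pH 12.5 stop of a 15 min room-temperature reaction. GCase 10 nM plus saposin C 100 nM in PS/triton micelles, pH 4.7, preincubated 30 min with compound; substrate solution held 2 mM 4-MU-beta-glucoside. Screened at 1.0 and 0.1 μM; 8-point, 3-fold curves from 5 μM top.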

Values after ≈ are worked out from the molar mass of the structure shown. Read-outs that look alike come from different tables or passages of the source.

The solubility is how much of the substance goes into solution per volume. Read a high solubility as a readily soluble substance. In turn, `Cc1cc(-c2ccccn2)nc2c(C(=O)N[C@@H](C)C3CC3)cnn12` [III-24] came in with a solubility in series [1] (Table 3A) of 8.1 µg/mL (≈ 25.2 µM). The “Percent Gcase Activation, 0.1 μM Test Compound” value in series [2] (0.1 μM test compound, Table 3A) was “** (Gcase activation in the range of 10% up to 20%)”. Further, the “Percent Gcase Activation, 1 μM Test Compound” value in series [2] (1 μM test compound, Table 3A) was “+++ (Gcase activation greater than 60%)”.
On the same counts, the results for `Cc1cc(-c2cccnc2)nc2c(C(=O)N[C@@H](C)C3CC3)cnn12` [III-26] are 26 µg/mL (≈ 80.9 µM), “* (less than 10% Gcase activation)” and “++ (Gcase activation in the range of 30% up to 60%)”.
Take `COc1cccc(-c2cc(C)n3ncc(C(=O)NC(C4CC4)C(F)(F)F)c3n2)n1` (centres unmarked) [III-105]: the solubility in series [1] is 0.08 µg/mL (≈ 0.197 µM). Further, the “Percent Gcase Activation, 0.1 μM Test Compound” value in series [2] (test compound at 0.1 μM) was “*** (greater than 20% Gcase activation)”. In series [2] (test compound at 1.0 μM), the “Percent Gcase Activation, 1 μM Test Compound” value is recorded as “+++ (Gcase activation greater than 60%)”.
In series [1], `Cc1cc(-c2ccc(Cl)nc2)nc2c(C(=O)N[C@@H](C3CC3)C(F)(F)F)cnn12` [III-118] yielded a solubility of 0.4 µg/mL (≈ 0.976 µM). In series [2] (test compound at 0.1 μM), the “Percent Gcase Activation, 0.1 μM Test Compound” value was “*** (greater than 20% Gcase activation)”. Moreover, the “Percent Gcase Activation, 1 μM Test Compound” value in series [2] (test compound at 1.0 μM) was “+++ (Gcase activation greater than 60%)”.
As to `Cc1cc(-c2noc(C(C)C)n2)nc2c(C(=O)N[C@H](C3CC3)C(F)(F)F)cnn12` [III-393], the “Percent Gcase Activation, 0.1 μM Test Compound” value in series [2] (0.1 μM test compound) is recorded as “*** (greater than 20% Gcase activation)”. Further, in series [2] (1 μM test compound), the “Percent Gcase Activation, 1 μM Test Compound” value is given as “+++ (Gcase activation greater than 60%)”.
Taken in the same sequence, the figures for `Cc1cc(-c2noc(C(C)C)n2)nc2c(C(=O)N[C@@H](C3CC3)C(F)(F)F)cnn12` [III-394] were “*** (greater than 20% Gcase activation)” and “+++ (Gcase activation greater than 60%)”.
On to `Cc1cc(C#N)nc2c(C(=O)N[C@@H](C3CC3)C(F)(F)F)cnn12` [III-395], for which the “Percent Gcase Activation, 0.1 μM Test Compound” value in series [2] (0.1 μM test compound) was “* (less than 10% Gcase activation)”. In addition, the “Percent Gcase Activation, 1 μM Test Compound” value in series [2] (1 μM test compound) is on record as “++ (Gcase activation in the range of 30% up to 60%)”.
In the case of `Cc1cc(-c2cc(F)ccc2C#N)nc2c(C(=O)N[C@@H](C)C3CC3)cnn12` [III-396], the “Percent Gcase Activation, 0.1 μM Test Compound” value in series [2] (0.1 μM test compound) was “*** (greater than 20% Gcase activation)”. In addition, the “Percent Gcase Activation, 1 μM Test Compound” value in series [2] (1 μM test compound) is “+++ (Gcase activation greater than 60%)”.
Taken in the same sequence, the figures for `Cc1cc(-c2c(F)cccc2C#N)nc2c(C(=O)N[C@@H](C)C3CC3)cnn12` [III-397] were “** (Gcase activation in the range of 10% up to 20%)” and “+++ (Gcase activation greater than 60%)”.
Taken in the same sequence, the figures for `Cc1cc(-c2cccc(F)c2C#N)nc2c(C(=O)N[C@@H](C)C3CC3)cnn12` [III-398] were “*** (greater than 20% Gcase activation)” and “+++ (Gcase activation greater than 60%)”.
For the molecule `Cc1cc(-c2cccc(F)c2C#N)nc2c(C(=O)N[C@@H](C)C(F)(F)F)cnn12` [III-399], the “Percent Gcase Activation, 0.1 μM Test Compound” value in series [2] (0.1 μM test compound) is “*** (greater than 20% Gcase activation)”. Further, in series [2] (1 μM test compound), the “Percent Gcase Activation, 1 μM Test Compound” value is given as “+++ (Gcase activation greater than 60%)”.
On the same counts, the results for `Cc1cc(-c2c(F)cccc2C#N)nc2c(C(=O)N[C@@H](C)C(F)(F)F)cnn12` [III-400] are “** (Gcase activation in the range of 10% up to 20%)” and “+++ (Gcase activation greater than 60%)”.
`Cc1cc(-c2noc(C(C)C)n2)nc2c(C(=O)N[C@@H](C)C(F)(F)F)cnn12` [III-401]: in series [2] (0.1 μM test compound), the “Percent Gcase Activation, 0.1 μM Test Compound” value was “*** (greater than 20% Gcase activation)”. Also, the “Percent Gcase Activation, 1 μM Test Compound” value in series [2] (1 μM test compound) is given as “+++ (Gcase activation greater than 60%)”.
On the same counts, the results for `Cc1cc(-c2noc(C(C)C)n2)nc2c(C(=O)N[C@@H](C)C3CC3)cnn12` [III-402] are “*** (greater than 20% Gcase activation)” and “+++ (Gcase activation greater than 60%)”.
On the same counts, the results for `CO[C@H]1CC[C@H]([C@@H](C)NC(=O)c2cnn3c(C)cc(C)nc23)CC1` [III-403] are “* (less than 10% Gcase activation)” and “++ (Gcase activation in the range of 30% up to 60%)”.
Take `CO[C@H]1CC[C@@H]([C@@H](C)NC(=O)c2cnn3c(C)cc(C)nc23)CC1` [III-404]: the “Percent Gcase Activation, 0.1 μM Test Compound” value in series [2] (0.1 μM test compound) was “* (less than 10% Gcase activation)”. Further, the “Percent Gcase Activation, 1 μM Test Compound” value in series [2] (1 μM test compound) is on record as “+++ (Gcase activation greater than 60%)”.
Taken in the same sequence, the figures for `COc1cccc(-c2cc(C)n3ncc(C(=O)NC(C)(C)C(F)(F)F)c3n2)c1` [III-405] were “*** (greater than 20% Gcase activation)” and “+++ (Gcase activation greater than 60%)”.
On the same counts, the results for `Cc1cc(-c2cccc(Cl)c2)nc2c(C(=O)NC(C)(C)C(F)(F)F)cnn12` [III-406] are “*** (greater than 20% Gcase activation)” and “+++ (Gcase activation greater than 60%)”.
For the molecule `CCc1cc(-c2ccccn2)nc2c(C(=O)NC(C)(C)C(F)(F)F)cnn12` [III-407], the “Percent Gcase Activation, 0.1 μM Test Compound” value in series [2] (0.1 μM test compound) is listed as “* (less than 10% Gcase activation)”. Further, in series [2] (1 μM test compound), the “Percent Gcase Activation, 1 μM Test Compound” value is given as “+ (less than 30% Gcase activation)”.
On the same counts, the results for `Cc1cc(-c2ccccn2)nc2c(C(=O)NC(C)(C)C(F)(F)F)cnn12` [III-408] are “** (Gcase activation in the range of 10% up to 20%)” and “+++ (Gcase activation greater than 60%)”.
Take `COc1ccc(F)c(-c2cc(C)n3ncc(C(=O)NC(C)C(F)(F)F)c3n2)c1` (centres unmarked) [III-409]: the “Percent Gcase Activation, 0.1 μM Test Compound” value in series [2] (0.1 μM test compound) was “*** (greater than 20% Gcase activation)”. Besides, the “Percent Gcase Activation, 1 μM Test Compound” value in series [2] (1 μM test compound) is recorded as “+++ (Gcase activation greater than 60%)”.
Regarding `COc1cc(F)cc(-c2cc(C)n3ncc(C(=O)NC(C)C(F)(F)F)c3n2)c1` (centres unmarked) [III-410], in series [2] (0.1 μM test compound), the “Percent Gcase Activation, 0.1 μM Test Compound” value was “*** (greater than 20% Gcase activation)”. For the same molecule, the “Percent Gcase Activation, 1 μM Test Compound” value in series [2] (1 μM test compound) is reported as “+++ (Gcase activation greater than 60%)”.
Taken in the same sequence, the figures for `Cc1cc(-c2ccns2)nc2c(C(=O)NC(C3CC3)C(F)(F)F)cnn12` (centres unmarked) [III-411] were “*** (greater than 20% Gcase activation)” and “+++ (Gcase activation greater than 60%)”.
As for `C#CC(C)(C)NC(=O)c1cnn2c(C)cc(-c3ccns3)nc12` [III-412], the “Percent Gcase Activation, 0.1 μM Test Compound” value in series [2] (0.1 μM test compound) was “* (less than 10% Gcase activation)”. The “Percent Gcase Activation, 1 μM Test Compound” value in series [2] (1 μM test compound) is given as “+++ (Gcase activation greater than 60%)”.
On the same counts, the results for `Cc1cc(-c2cccc(C(=O)N(C)C)c2)nc2c(C(=O)NC(C3CC3)C(F)(F)F)cnn12` (centres unmarked) [III-413] are “* (less than 10% Gcase activation)” and “+++ (Gcase activation greater than 60%)”.
Consider `CNC(=O)c1cccc(-c2cc(C)n3ncc(C(=O)NC(C4CC4)C(F)(F)F)c3n2)c1` (centres unmarked) [III-414], for which, in series [2] (0.1 μM test compound), the “Percent Gcase Activation, 0.1 μM Test Compound” value was “* (less than 10% Gcase activation)”. The “Percent Gcase Activation, 1 μM Test Compound” value in series [2] (1 μM test compound) is given as “+++ (Gcase activation greater than 60%)”.
Taken in the same sequence, the figures for `Cc1cc(-c2cccc(-n3cccn3)c2)nc2c(C(=O)NC(C3CC3)C(F)(F)F)cnn12` (centres unmarked) [III-415] were “*** (greater than 20% Gcase activation)” and “++ (Gcase activation in the range of 30% up to 60%)”.
On the same counts, the results for `Cc1cc(-c2cccc(-c3ncco3)c2)nc2c(C(=O)NC(C3CC3)C(F)(F)F)cnn12` (centres unmarked) [III-416] are “*** (greater than 20% Gcase activation)” and “+++ (Gcase activation greater than 60%)”.
Taken in the same sequence, the figures for `Cc1cc(-c2cccc(-c3ncccn3)c2)nc2c(C(=O)NC(C3CC3)C(F)(F)F)cnn12` (centres unmarked) [III-417] were “*** (greater than 20% Gcase activation)” and “+++ (Gcase activation greater than 60%)”.
Regarding `Cc1cc(C)n2ncc(C(=O)Nc3ccc(C#CCN(C)C)cc3)c2n1` [IV-2], the “Percent Gease Activation, 0.1 μM Test Compound” value in series [2] (0.1 μM test compound) is reported as “* (less than 10% Gcase activation)”. Besides, the “Percent Gease Activation, 1 μM Test Compound” value in series [2] (1 μM test compound) is recorded as “+ (less than 30% Gcase activation)”.
Turning to `Cc1cc(C)n2ncc(C(=O)Nc3ccc4c(c3)OCO4)c2n1` [IV-4], the “Percent Gease Activation, 0.1 μM Test Compound” value in series [2] (0.1 μM test compound) is “* (less than 10% Gcase activation)”. The “Percent Gease Activation, 1 μM Test Compound” value in series [2] (1 μM test compound) is on record as “++ (Gcase activation in the range of 30% up to 60%)”.
On the same counts, the results for `Cc1cc(C)n2ncc(C(=O)Nc3ccc4c(c3)CCC4)c2n1` [IV-5] are “** (Gcase activation in the range of 10% up to 20%)” and “+++ (Gcase activation greater than 60%)”.
